Source: patent US9458101B2 (priority 2009, dated 2016)

Assays:
[1] = system: A549 (Human lung carcinoma); assay: Cytotoxicity testing (MTS) on A549; type: cell-based
Method: (§1) Cell lines used were A549 (Human lung carcinoma), HeLa (Human cervical carcinoma), MCF-7 (Human mammary gland adenocarcinoma), CEM (Human T-lymphoblastoid from ALL (Acute lymphoblastic leukemia)), M010B (Human glioma), M006X (Human glioma) and Jurkat (Human T-cell leukemia).
(§2) A series of dilutions were prepared and a wavelength scan of the diluted solution was used to determine the wavelength of maximum absorbance for each compound. Five standardized drug concentrations were scanned at this pre-determined wavelength to obtain an estimate of the compound's extinction coefficient.
(§3) A primary MTS assay was used to test the optimal number of cells for cytotoxicity assays. Cells were trypsinized, counted and introduced into seven lanes of a 96-well plate at different cell numbers (eight replicates per lane). Optimal cell numbers were determined after 72 and 96 hours of growth and were used in subsequent cytotoxicity assays. […] Cell viability was determined using the Cell Titer 96 AQueous One Solution Cell Proliferation Assay (Promega, U.S.A.).
(§4) Fits were performed using a dose-response model ideal for data showing an initial response plateau, a transition region, and a final response plateau.
(§5) [formula] […] Itop is the response obtained at very low/no drug concentration. The data and all parameters were normalized to Itop−Ibot, a measure of the maximum effect of the drug.

[2] = system: HeLa (Human cervical carcinoma); assay: Cytotoxicity testing (MTS) on HeLa; type: cell-based
Method: as §1, §2, §3, §4, §5

M006X (Human glioma) = assay: Cytotoxicity testing (MTS) on M006X; type: cell-based
Method: as §1, §2, §3, §4, §5

[3] = system: CEM (Human T-lymphoblastoid from ALL); assay: Cytotoxicity testing (MTS) on CEM; type: cell-based
Method: as §1, §2, §3, §4, §5

[4] = system: MCF-7 (Human mammary gland adenocarcinoma); assay: Cytotoxicity testing (MTS) on MCF-7; type: cell-based
Method: as §1, §2, §3, §4, §5

M010B (Human glioma) = assay: Cytotoxicity testing (MTS) on M010B; type: cell-based
Method: as §1, §2, §3, §4, §5

[5] = system: A549, HeLa, MCF-7 and CEM cell lines; assay: Cytotoxicity, mean over A549, HeLa, MCF-7 and CEM cell lines; conditions: for cytotoxicity compared with colchicine: cytotoxicity assays; for IC50 [log10 M] (mean logIC50): mean over A549, HeLa, MCF-7 and CEM cell lines
Excerpt: as §1, §3, §5
Cytotoxicity screening was performed on a number of cell lines based on the cancer of origin and differing morphologies.

| Molecule | Fraction of cells that survive at the highest drug concentrations (Ibot) [1] | logIC50 [1] [log10 M] | Fraction of cells that survive at the highest drug concentrations (Ibot) [2] | logIC50 [2] [log10 M] | Fraction of cells that survive at the highest drug concentrations (Ibot) (M006X (Human glioma)) | logIC50 (M006X (Human glioma)) [log10 M] | Fraction of cells that survive at the highest drug concentrations (Ibot) [3] | logIC50 [3] [log10 M] | Fraction of cells that survive at the highest drug concentrations (Ibot) [4] | logIC50 [4] [log10 M] | Fraction of cells that survive at the highest drug concentrations (Ibot) (M010B (Human glioma)) | logIC50 (M010B (Human glioma)) [log10 M] | cytotoxicity compared with colchicine [5] | IC50 [log10 M] (mean logIC50) [5] | average IC50 values compared with colchicine ([5]; average values of Table 3) |
| --- | --- | --- | --- | --- | --- | --- | --- | --- | --- | --- | --- | --- | --- | --- | --- |
| C=CCOc1c(OC)c(OC)cc2c1-c1ccc(OC)c(=O)cc1[C@@H](NC(C)=O)CC2 [Compound 9] | 0.227 ± 0.021 | −6.66 ± 0.10 | 0.082 ± 0.018 | −7.35 ± 0.09 | 0.037 ± 0.015 | −7.47 ± 0.09 | −0.004 ± 0.015 | −7.46 ± 0.08 | 0.484 ± 0.009 | −7.10 ± 0.05 | 0.299 ± 0.017 | −6.74 ± 0.08 | moderately better than colchicine | −7.15 ± 0.08 | – |
| COc1cc2c(c(OCc3ccccc3)c1OC)-c1ccc(OC)c(=O)cc1[C@@H](NC(C)=O)CC2 [Compound 10, N-[(7S)-2,3,10-trimethoxy-9-oxo-1-((phenyl)methoxy)-5,6,7,9-tetrahydrobenzo [α]heptalen-7-yl]acetamide] | 0.256 ± 0.032 | −5.77 ± 0.10 | 0.080 ± 0.026 | −6.17 ± 0.07 | 0.088 ± 0.022 | −6.42 ± 0.09 | 0.012 ± 0.022 | −6.45 ± 0.09 | 0.387 ± 0.016 | −6.27 ± 0.08 | 0.250 ± 0.031 | −5.66 ± 0.10 | – | −6.16 ± 0.08 | – |
| COc1cc2c(c(OCc3cccc(Cl)c3)c1OC)-c1ccc(OC)c(=O)cc1[C@@H](NC(C)=O)CC2 [Compound 12, N-[(7S)-2,3,10-trimethoxy-9-oxo-1-((phenyl(3-chloro))methoxy)-5,6,7,9-tetrahydrobenzo[α]heptalen-7-yl]acetamide] | 0.245 ± 0.024 | −6.00 ± 0.04 | 0.040 ± 0.038 | −6.43 ± 0.15 | 0.051 ± 0.027 | −6.47 ± 0.12 | −0.015 ± 0.021 | −6.46 ± 0.09 | 0.390 ± 0.025 | −6.30 ± 0.12 | 0.328 ± 0.022 | −6.39 ± 0.11 | – | −6.30 ± 0.10 | – |
| COc1cc2c(c(OCc3ccc(Cl)cc3)c1OC)-c1ccc(OC)c(=O)cc1[C@@H](NC(C)=O)CC2 [Compound 15] | 0.288 ± 0.020 | −6.23 ± 0.08 | 0.039 ± 0.034 | −6.22 ± 0.09 | 0.058 ± 0.030 | −6.45 ± 0.13 | −0.016 ± 0.032 | −6.57 ± 0.11 | 0.381 ± 0.024 | −6.35 ± 0.12 | 0.382 ± 0.028 | −6.38 ± 0.14 | – | −6.34 ± 0.10 | – |
| CCOc1cc2c(c(OC)c1OC)-c1ccc(SC)c(=O)cc1[C@@H](NC(C)=O)CC2 [Compound 42, N-[(7S)-3-ethoxy-1,2-dimethoxy-10-methylsulfanyl-9-oxo-5,6,7,9-tetrahydrobenzo[α]heptalen-7-yl]acetamide] | 0.256 ± 0.015 | −8.37 ± 0.10 | 0.046 ± 0.026 | −8.47 ± 0.14 | 0.184 ± 0.021 | −8.83 ± 0.08 | 0.026 ± 0.018 | −8.64 ± 0.09 | 0.538 ± 0.010 | −8.28 ± 0.10 | 0.327 ± 0.023 | −8.27 ± 0.12 | consistently the most effective | −8.44 ± 0.11 | stronger than colchicine |
| N-[(7S)-2,3,10-trimethoxy-1-((methyl)cyclohexane)-9-oxo-5,6,7,9-tetrahydrobenzo[α]heptalen-7-yl]acetamide [Compound 16] | – | −4.95 ± 0.07 | – | −5.33 ± 0.11 | – | −5.44 ± 0.12 | – | −5.53 ± 0.10 | – | −5.22 ± 0.08 | – | −5.20 ± 0.08 | – | −5.26 ± 0.09 | – |
| N-[(7S)-2,3,10-trimethoxy-9-oxo-1-(((3-methoxy)propan)oxy)(3-methoxy))-5,6,7,9-tetrahydrobenzo[α]heptalen-7-yl]acetamide [Compound 11] | – | −6.47 ± 0.12 | – | −7.23 ± 0.09 | – | −7.40 ± 0.09 | – | −7.45 ± 0.09 | – | −7.05 ± 0.04 | – | −6.74 ± 0.08 | – | −7.05 ± 0.09 | – |
